Data reported in patent US20230278995A1, “1,3,4-OXADIAZOLE DERIVATIVE COMPOUNDS AS HISTONE DEACETYLASE 6 INHIBITOR, AND THE PHARMACEUTICAL COMPOSITION COMPRISING THE SAME” (CHONG KUN DANG PHARMACEUTICAL CORP., priority 2020, published 2023).
pIC50: −log10 of the molar value.

Legend:
human recombinant HDAC6 = biological target: T1, human recombinant HDAC6 (Homo sapiens, UniProt Q9UBN7); experiment: HDAC enzyme activity inhibition assay (HDAC Fluorimetric Drug Discovery Kit), HDAC6; format: biochemical; conditions: for HDAC6 selectivity (fold): HDAC1 vs HDAC6; for pIC50: human recombinant HDAC6, same protocol as HDAC1
T1 construct: purchased Calbiochem Inc. 382180
T1 sequence (Q9UBN7 1-1215): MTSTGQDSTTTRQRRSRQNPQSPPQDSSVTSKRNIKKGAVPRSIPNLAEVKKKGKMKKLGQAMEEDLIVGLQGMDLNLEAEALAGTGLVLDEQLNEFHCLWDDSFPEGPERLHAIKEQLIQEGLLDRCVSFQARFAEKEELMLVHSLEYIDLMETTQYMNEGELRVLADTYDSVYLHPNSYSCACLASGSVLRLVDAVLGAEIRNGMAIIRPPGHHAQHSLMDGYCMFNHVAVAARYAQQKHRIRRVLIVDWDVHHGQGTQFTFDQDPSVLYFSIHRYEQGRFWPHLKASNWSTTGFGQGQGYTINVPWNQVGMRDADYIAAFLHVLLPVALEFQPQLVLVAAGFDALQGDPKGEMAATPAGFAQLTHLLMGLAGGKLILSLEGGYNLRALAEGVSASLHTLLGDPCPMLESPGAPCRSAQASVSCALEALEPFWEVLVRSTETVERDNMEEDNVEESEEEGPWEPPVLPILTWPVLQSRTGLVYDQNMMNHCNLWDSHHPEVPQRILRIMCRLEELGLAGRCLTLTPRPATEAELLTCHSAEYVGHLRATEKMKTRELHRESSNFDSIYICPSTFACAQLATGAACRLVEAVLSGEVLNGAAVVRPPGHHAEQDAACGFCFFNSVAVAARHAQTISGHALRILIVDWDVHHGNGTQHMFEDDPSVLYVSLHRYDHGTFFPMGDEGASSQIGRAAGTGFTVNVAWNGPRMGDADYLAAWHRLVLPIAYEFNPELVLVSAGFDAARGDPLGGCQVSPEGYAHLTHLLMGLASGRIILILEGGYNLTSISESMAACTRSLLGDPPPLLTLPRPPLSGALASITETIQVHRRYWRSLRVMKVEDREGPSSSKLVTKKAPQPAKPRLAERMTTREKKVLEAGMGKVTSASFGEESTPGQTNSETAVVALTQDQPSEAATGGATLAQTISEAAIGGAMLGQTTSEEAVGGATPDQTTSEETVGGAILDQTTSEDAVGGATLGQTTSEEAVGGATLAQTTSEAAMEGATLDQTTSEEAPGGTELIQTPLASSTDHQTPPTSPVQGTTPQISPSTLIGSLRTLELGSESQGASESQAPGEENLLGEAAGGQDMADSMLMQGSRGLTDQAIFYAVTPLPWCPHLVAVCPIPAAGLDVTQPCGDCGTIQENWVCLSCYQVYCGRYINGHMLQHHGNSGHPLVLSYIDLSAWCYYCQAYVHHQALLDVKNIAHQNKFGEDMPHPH
Method: (§1) For the HDAC1 enzyme activity test, human recombinant HDAC1 (BML-SE456) was used as an enzyme source and Fluor de Lys©-SIRT1 (BNL-K1177) was used as a substrate. After dispensing 5-fold diluted compounds into a 96-well plate, 0.3 μg of enzyme and 10 μM substrate were added to each well of the plate and allowed to react at 30° C. for 60 minutes. Next, Fluor de Lys© Developer II (BML-K1176) was added and reacted for 30 minutes to complete the reaction, and then the fluorescence values (Ex 360, Em 460) were measured using a multi-plate reader (Flexstation 3, Molecular Device). The HDAC6 enzymes were tested using human recombinant HDAC6 (382180) from Calbiochem Inc., according to the same protocol as the HDAC1 enzyme activity test method. With respect to the final result values, respective IC50 values were calculated using GraphPad Prism 4.0 program (Table 2).

human recombinant HDAC1 = biological target: T2, human recombinant HDAC1 (Homo sapiens, UniProt Q13547); experiment: HDAC enzyme activity inhibition assay (HDAC Fluorimetric Drug Discovery Kit), HDAC1; format: biochemical; conditions: human recombinant HDAC1, Fluor de Lys-SIRT1 substrate, 30° C. 60 minutes
T2 construct: purchased Enzo Life Sciences, Inc. BML-SE456
T2 sequence (Q13547 whole entry): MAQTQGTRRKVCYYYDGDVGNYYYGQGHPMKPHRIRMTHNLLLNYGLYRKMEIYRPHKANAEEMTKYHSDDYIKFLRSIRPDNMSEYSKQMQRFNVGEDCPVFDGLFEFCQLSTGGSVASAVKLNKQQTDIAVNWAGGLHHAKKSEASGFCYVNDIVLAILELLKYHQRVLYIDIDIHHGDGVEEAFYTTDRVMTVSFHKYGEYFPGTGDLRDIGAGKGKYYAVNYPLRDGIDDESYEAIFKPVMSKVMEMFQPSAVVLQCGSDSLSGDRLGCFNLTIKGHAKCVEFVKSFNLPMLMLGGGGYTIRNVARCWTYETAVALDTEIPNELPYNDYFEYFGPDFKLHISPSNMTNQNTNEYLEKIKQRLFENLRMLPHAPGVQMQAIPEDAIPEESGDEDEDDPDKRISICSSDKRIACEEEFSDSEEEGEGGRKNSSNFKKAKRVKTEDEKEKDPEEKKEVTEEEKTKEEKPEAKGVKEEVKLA
Method: as §1

Compound | HDAC6 selectivity (fold) (human recombinant HDAC6) | pIC50 (human recombinant HDAC6) | pIC50 (human recombinant HDAC1)
CC(C)N1CC(F)(C(=O)N(Cc2ccc(-c3nnc(C(F)F)o3)cn2)c2cccc(F)c2)C1 [Compound 3048, N-((5-(5-(difluoromethyl)-1,3,4-oxadiazol-2-yl)pyridin-2-yl)methyl)-3-fluoro-N-(3-fluorophenyl)-1-isopropylazetidine-3-carboxamide] | 237 fold | 7.11 | 4.73
O=C(N(Cc1ccc(-c2nnc(C(F)F)o2)cn1)c1cccc(F)c1)C1(F)CN(C2CCC2)C1 [Compound 3049, 1-cyclobutyl-N-((5-(5-(difluoromethyl)-1,3,4-oxadiazol-2-yl)pyridin-2-yl)methyl)-3-fluoro-N-(3-fluorophenyl)azetidine-3-carboxamide] | 392 fold | 7.26 | 4.67
O=C(N(Cc1ccc(-c2nnc(C(F)F)o2)cn1)c1cccc(F)c1)C1(F)CN(C2COC2)C1 [Compound 3050, N-((5-(5-(difluoromethyl)-1,3,4-oxadiazol-2-yl)pyridin-2-yl)meth 1)-3-fluoro-N-(3-fluorophenyl)-1-(oxetan-3-yl)azetidine-3-carboxamide] | 683 fold | 7.14 | < 4.30
O=C(N(Cc1ccc(-c2nnc(C(F)F)o2)cn1)c1cccc(F)c1)C1(F)CN(C2CCOC2)C1 (stereo not drawn) [Compound 3052, N-((5-(5-(difluoromethyl)-1,3,4-oxadiazol-2-yl)pyridin-2-yl)methyl)-3-fluoro-N-(3-fluorophenyl)-1-(tetrahydrofuran-3-yl)azetidine-3-carboxamide] | 854 fold | 7.23 | < 4.30
O=C(N(Cc1ccc(-c2nnc(C(F)F)o2)cn1)c1cccc(F)c1)C1(F)CN(C2CCCCC2)C1 [Compound 3053, 1-cyclohexyl-N-((5-(5-(difluoromethyl)-1,3,4-oxadiazol-2-yl)pyridin-2-yl)methyl)-3-fluoro-N-(3-fluorophenyl)azetidine-3-carboxamide] | 668 fold | 7.13 | < 4.30
CCN1CC(F)(C(=O)N(Cc2ccc(-c3nnc(C(F)F)o3)cn2)c2cccc(F)c2)C1 [Compound 3090, N-((5-(5-(difluoromethyl)-1,3,4-oxadiazol-2-yl)pyridin-2-yl)methyl)-1-ethyl-3-fluoro-N-(3-fluorophenyl)azetidine-3-carboxamide] | 2,212 fold | 7.65 | < 4.30
CCCN1CC(F)(C(=O)N(Cc2ccc(-c3nnc(C(F)F)o3)cn2)c2cccc(F)c2)C1 [Compound 3091, N-((5-(5-(difluoromethyl)-1,3,4-oxadiazol-2-yl)pyridin-2-yl)methyl)-3-fluoro-N-(3-fluorophenyl)-1-propylazetidine-3-carboxamide] | 1,436 fold | 7.46 | < 4.30
CC(C)CN1CC(F)(C(=O)N(Cc2ccc(-c3nnc(C(F)F)o3)cn2)c2cccc(F)c2)C1 [Compound 3093, N-((5-(5-(difluoromethyl)-1,3,4-oxadiazol-2-yl)pyridin-2-yl)methyl)-3-fluoro-N-(3-fluorophenyl)-1-isobutylazetidine-3-carboxamide] | 1,543 fold | 7.49 | < 4.30
CC(CO)N1CC(F)(C(=O)N(Cc2ccc(-c3nnc(C(F)F)o3)cn2)c2cccc(F)c2)C1 (stereo not drawn) [Compound 3094, N-((5-(5-(difluoromethyl)-1,3,4-oxadiazol-2-yl)pyridin-2-yl)methyl)-3-fluoro-N-(3-fluorophenyl)-1-(1-hydroxypropan-2-yl)azetidine-3-carboxamide] | 1,901 fold | 7.58 | < 4.30
O=C(N(Cc1ccc(-c2nnc(C(F)F)o2)cn1)c1cccc(F)c1)C1(F)CN(C2CCC(F)(F)CC2)C1 [Compound 3096, 1-(4,4-difluorocyclohexyl)-N-((5-(5-(difluoromethyl)-1,3,4-oxadiazol-2-yl)pyridin-2-yl)methyl)-3-fluoro-N-(3-fluorophenyl)azetidine-3-carboxamide] | 1,385 fold | 7.44 | < 4.30
CN(C)CCC(=O)N1CC(F)(C(=O)N(Cc2ccc(-c3nnc(C(F)F)o3)cn2)c2cccc(F)c2)C1 [Compound 3097, N-((5-(5-(difluoromethyl)-1,3,4-oxadiazol-2-yl)pyridin-2-yl)methyl)-1-(3-(dimethylamino)propanoyl)-3-fluoro-N-(3-fluorophenyl)azetidine-3-carboxamide] | 1,612 fold | 7.51 | < 4.30
CN(C)CCCC(=O)N1CC(F)(C(=O)N(Cc2ccc(-c3nnc(C(F)F)o3)cn2)c2cccc(F)c2)C1 [Compound 3098, N-((5-(5-(difluoromethyl)-1,3,4-oxadiazol-2-yl)pyridin-2-yl)methyl)-1-(4-(dimethylamino)butanoyl)-3-fluoro-N-(3-fluorophenyl)azetidine-3-carboxamide] | 1,992 fold | 7.60 | < 4.30
CN1CC(N2CC(F)(C(=O)N(Cc3ccc(-c4nnc(C(F)F)o4)cn3)c3ccccc3)C2)C1 [Compound 3105, N-((5-(5-(difluoromethyl)-1,3,4-oxadiazol-2-yl)pyridin-2-yl)methyl)-3-fluoro-1′-methyl-N-phenyl-[1,3′-biazetidine]-3-carboxamide] | 771 fold | 7.19 | < 4.30
CCN1CC(N2CC(F)(C(=O)N(Cc3ccc(-c4nnc(C(F)F)o4)cn3)c3ccccc3)C2)C1 [Compound 3106, N-((5-(5-(difluoromethyl)-1,3,4-oxadiazol-2-yl)pyridin-2-yl)methyl)-1′-ethyl-3-fluoro-N-phenyl-[1,3′-biazetidine]-3-carboxamide] | 1,262 fold | 7.40 | < 4.30
CCCN1CC(N2CC(F)(C(=O)N(Cc3ccc(-c4nnc(C(F)F)o4)cn3)c3ccccc3)C2)C1 [Compound 3107, N-((5-(5-(difluoromethyl)-1,3,4-oxadiazol-2-yl)pyridin-2-yl)methyl)-3-fluoro-N-phenyl-1′-propyl-[1,3′-biazetidine]-3-carboxamide] | 1,059 fold | 7.33 | < 4.30
CCCCN1CC(N2CC(F)(C(=O)N(Cc3ccc(-c4nnc(C(F)F)o4)cn3)c3ccccc3)C2)C1 [Compound 3108, 1′-butyl-N-((5-(5-(difluoromethyl)-1,3,4-oxadiazol-2-yl)pyridin-2-yl)methyl)-3-fluoro-N-phenyl-[1,3′-biazetidine]-3-carboxamide] | 1,827 fold | 7.56 | < 4.30
CN1CCC(N2CC(F)(C(=O)N(Cc3ccc(-c4nnc(C(F)F)o4)cn3)c3ccccc3)C2)CC1 [Compound 3110, N-((5-(5-(difluoromethyl)-1,3,4-oxadiazol-2-yl)pyridin-2-yl)methyl)-3-fluoro-1-(1-methylpiperidin-4-yl)-N-phenylazetidine-3-carboxamide] | 1,170 fold | 7.37 | < 4.30
CCN1CCC(N2CC(F)(C(=O)N(Cc3ccc(-c4nnc(C(F)F)o4)cn3)c3ccccc3)C2)CC1 [Compound 3111, N-((5-(5-(difluoromethyl)-1,3,4-oxadiazol-2-yl)pyridin-2-yl)methyl)-1-(1-ethylpiperidin-4-yl)-3-fluoro-N-phenylazetidine-3-carboxamide] | 931 fold | 7.27 | < 4.30
